Data on 23 compounds can be found in ChEMBL document CHEMBL2029308, “Synthesis and anti-leishmanial activity of 1-aryl-β-carboline derivatives against Leishmania donovani” (Bioorg Med Chem Lett, 2012).

The subject of data set [1] is Leishmania donovani. Put plainly: Antileishmanial activity against Leishmania donovani MHOM/ET/67/HU3 after 72 hrs by MTT assay. The class given is functional, organism-based. As to conditions: MHOM/ET/67/HU3, 72 h.
Data set [2] can be described thus: Cytotoxicity against mouse peritoneal macrophages. The class given is cell-based, Peritoneal macrophage cell.
The nature of data set [3]: Selectivity ratio of CC50 for mouse peritoneal macrophages to IC50 for Leishmania donovani MHOM/ET/67/HU3.

The structures appear in SMILES notation. Bounds are passed on as bounds.

As a reminder, the IC50 is the point on the concentration scale where inhibition reaches its midpoint. A lower IC50 goes with higher potency. In general, CC50 refers to the concentration that lowers cell viability or growth by half. A higher CC50 goes with lower toxicity to the cells. With `N#Cc1ccc(C(=O)Nc2ccc(-c3nccc4c3[nH]c3ccccc34)cc2)cc1`, the IC50 in data set [1] turned out to be 5.31 µM. The CC50 in data set [2] is greater than 50 µM.

The compound `CCCCCCCCCCCCCC(=O)Nc1ccc(-c2nccc3c2[nH]c2ccccc23)cc1` came in with an IC50 in data set [1] greater than 100 µM. Further, the CC50 in data set [2] is greater than 50 µM.

In turn, `O=C(Nc1ccc(-c2nccc3c2[nH]c2ccccc23)cc1)c1ccccc1` yielded an IC50 in data set [1] of 9.68 µM. The same compound yielded a CC50 in data set [2] greater than 50 µM.

For `O=C(Nc1ccc(-c2nccc3c2[nH]c2ccccc23)cc1)c1ccc(C(F)(F)F)cc1`, the IC50 in data set [1] is greater than 100 µM. The same compound came in with a cytotoxic concentration (CC50) in data set [2] greater than 50 µM.

Take `CC(=O)Nc1ccc(-c2nccc3c2[nH]c2ccccc23)cc1`: the IC50 in data set [1] was determined as 2.16 µM. Moreover, the CC50 in data set [2] was greater than 50 µM. In addition, the “Ratio CC50/IC50” value in data set [3] is greater than 20.

In turn, `CCCCCCCCCCCCCCCCOP(=O)([O-])OCC[N+](C)(C)C` [MILTEFOSINE] came in with an IC50 in data set [1] of 12.1 µM. This counts as double-digit micromolar.

In turn, `Nc1ccc(-c2nccc3c2[nH]c2ccccc23)cc1` returned an IC50 in data set [1] of 46.6 µM. In data set [2], this compound yielded a CC50 greater than 50 µM.

`O=C(Nc1ccc(-c2nccc3c2[nH]c2ccccc23)cc1)c1ccco1` yielded an IC50 in data set [1] of 6.38 µM. Moreover, in data set [2], the CC50 was greater than 50 µM.

Take `O=C(Nc1ccc(-c2nccc3c2[nH]c2ccccc23)cc1)c1ccc(F)cc1F`: the IC50 in data set [1] is greater than 100 µM. The same compound registered a CC50 in data set [2] greater than 50 µM.

As to `COc1ccc(C(=O)Nc2ccc(-c3nccc4c3[nH]c3ccccc34)cc2)cc1`, in data set [1], half-maximal inhibition (IC50) required 12.3 µM. Besides, the 50% cytotoxic concentration (CC50) in data set [2] is greater than 50 µM.

`C=CCCCCCCCCC(=O)Nc1ccc(-c2nccc3c2[nH]c2ccccc23)cc1`: the half-maximal inhibitory concentration (IC50) in data set [1] was greater than 100 µM. In addition, in data set [2], the CC50 was greater than 50 µM.

The compound `Cc1cc(C(=O)Nc2ccc(-c3nccc4c3[nH]c3ccccc34)cc2)c(C)o1` came in with an IC50 in data set [1] of 30.1 µM. This compound also came in with a CC50 in data set [2] greater than 50 µM.

As to `CC(C)(C)c1ccc(C(=O)Nc2ccc(-c3nccc4c3[nH]c3ccccc34)cc2)cc1`, the IC50 in data set [1] was greater than 100 µM. The CC50 in data set [2] is greater than 50 µM.

As for `CCCCC(=O)Nc1ccc(-c2nccc3c2[nH]c2ccccc23)cc1`, in data set [1], the IC50 is 19.7 µM. The compound also came in with a CC50 in data set [2] greater than 50 µM.

Compound `CCCCCCCCCCCC(=O)Nc1ccc(-c2nccc3c2[nH]c2ccccc23)cc1` came in with an IC50 in data set [1] greater than 100 µM. The CC50 in data set [2] was greater than 50 µM.

`O=C(O)C1Cc2c([nH]c3ccccc23)C(c2ccc([N+](=O)[O-])cc2)N1` (stereo unspecified): the IC50 in data set [1] was greater than 100 µM. In data set [2], this compound yielded a CC50 greater than 50 µM.

The compound `O=C(Nc1ccc(-c2nccc3c2[nH]c2ccccc23)cc1)c1ccc(F)c(F)c1` returned a half-maximal inhibitory concentration (IC50) in data set [1] of 13.1 µM. The same compound came in with a CC50 in data set [2] greater than 50 µM.

In the case of `O=C(Nc1ccc(-c2nccc3c2[nH]c2ccccc23)cc1)c1ccc2ccccc2c1`, the half-inhibitory concentration (IC50) in data set [1] was 8.84 µM. The compound further yielded a half-maximal cytotoxic concentration (CC50) in data set [2] greater than 50 µM.

In turn, `O=[N+]([O-])c1ccc(-c2[nH]ccc3c4ccccc4nc2-3)cc1` displayed a concentration for half-maximal inhibition (IC50) in data set [1] greater than 100 µM. Moreover, in data set [2], the CC50 is greater than 50 µM.

The compound `Cc1ccc(C(=O)Nc2ccc(-c3nccc4c3[nH]c3ccccc34)cc2)cc1` showed an IC50 in data set [1] of 14.3 µM. For the same compound, the CC50 in data set [2] was greater than 50 µM.

Compound `O=C(Nc1ccc(-c2nccc3c2[nH]c2ccccc23)cc1)c1cccc2ccccc12` returned an IC50 in data set [1] greater than 100 µM. This compound also returned a 50% cytotoxic concentration (CC50) in data set [2] greater than 50 µM.

`O=C(Nc1ccc(-c2nccc3c2[nH]c2ccccc23)cc1)c1cccs1` showed an IC50 in data set [1] of 15 µM. The compound also came in with a cytotoxic concentration (CC50) in data set [2] greater than 50 µM.

`O=C(/C=C/c1ccccc1)Nc1ccc(-c2nccc3c2[nH]c2ccccc23)cc1`: it took 7.7 µM to reach half-maximal inhibition in data set [1] (IC50). In data set [2], this compound came in with a CC50 greater than 50 µM.
